From patent publication US7482008B1, “Human T cell reactive feline protein (TRFP) isolated from house dust and uses therefor” (Merck Patent GmbH, priority 1989, dated 2009)

Columns and labels:
human IgE = assay: Western blot and ELISA of human IgE binding to affinity purified TRFP
Excerpt: A protein preparation was extracted from the contents of vacuum cleaner bags by a method based on that of M. D. Chapman and co-workers. Chapman, M. D. et al., J. Immunol., 140(3): 812-818 (1988). Monoclonal antibody reactive with Fel d I, produced by Chapman and co-workers, was used to identify a protein in the preparation. de Groot, H. et al., J. Allergy Clin. Immunol., 82:778-786 (1988). Selected monoclonal antibodies (designated 1G9 and 6F9) that recognize Fel d I native protein were used to affinity purify a protein, which is referred to as human T cell reactive feline protein (TRFP) (also referred to as VCB or vacuum cleaner bag protein) from a house dust sample. This was carried out, using known techniques, by producing the desired monoclonal antibody, isolating it in large quantities from ascites and immobilizing it on Sepharose 4B (Pharmacia). The protein preparation was extracted from vacuum cleaner bags of house dust obtained from several homes with cats. Aqueous vacuum cleaner bag extract was first subjected to gel filtration and decolorization and, subsequently, affinity chromatography purification. Aqueous vacuum cleaner bag extract was passed over the monoclonal antibody-containing column and a protein species was eluted. […] The affinity purified TRFP was subjected to a number of protein chemical procedures to derive primary amino sequence data. […]

[1] = test system: BDF1 mice preimmunized with TRFP; assay: Peptide Y specific antibody ELISA of sera from TRFP-preimmunized, peptide Y tolerized mice; format: in vivo, mouse
Method: The serum was separated as previously described. […] Each incubation step in this protocol lasts 1 hour at 37° C. The wells were incubated with gelatin in PBS for blocking excess binding to the plate. Sera were diluted in PBS in a range from 1/300 to 1/8100 and incubated in triplicate on the plates. After rinsing, the bound mouse antibody was detected by incubation with biotinylated goat anti-mouse IgG (Southern Biotechnology Associates). Streptavidin conjugated to horse radish peroxidase (Southern Biotechnology Associates) was added to detect antigen bound biotinylated antibody-complexes. […] The data from the other sera dilutions were consistent with the data from the 1/900 sera dilution.
The sera were assayed for the presence of peptide Y specific IgM, IgE, and IgG isotypes. The ELISA used to detect antigen specific binding of IgG1, IgG2a, IgG2b, IgG3 and IgM isotypes were similar to the IgG assay described above with the only difference being the biotinylated anti-immunoglobulin used to detect the bound isotype. These assays employed biotinylated goat anti-IgG1 (#1070-08), Southern Biotechnology Associates), anti-IgG2a (#1080-08, SBA), anti-IgG2b (1090-08, SBA) […] (1100-08, SBA), and anti-IgM (1020-08, SBA). Antigens bound IgE was detected similarly, but using biotinylated EM95, a rat monoclonal antibody specific for mouse IgE. (Baniyash M, Eshhar Z, Eur J. Immunol. 14:799, 1984). Biotinylated goat anti-rat Ig was used as an added signal amplification step in the IgE ELISA. […] IgG1 was the major isotype seen in the animals which were injected with saline only, with a titer of 1/2700 for all three animals. […] The titers for IgM and IgG2b were similarly effected.

B6CBAF1 mice = assay: Oral induction of T cell non-responsiveness, protocol 1; format: in vivo, mouse; conditions: fed on days -7, -5, -2
Method: The draining lymph nodes (i.e., inguinal, paraaortic and popliteal), the mesenteric lymph nodes, and the spleen were surgically removed from the animals 10-12 days after antigen challenge. Cells from these tissues were suspended by being forced through a stainless steel mesh with a glass pestle. The cells were washed twice in RPMI 1640 medium with a 1% fetal calf serum (FCS) before culture. All cells were cultured at 37° C. in 5% CO2 in RPMI 1640 with 10% FCS (no. F4884, Sigma), 100 units of penicillin G per ml, 10 μg of streptomycin per ml, 10 mM glutamine, and 0.05 mM 2-mercaptoethanol. […]. Cells were cultured in triplicate, 0.2 ml per well at 4×10^6 cells per ml, in 96-well plates. Supernatants were removed from the wells after 24 hours to test for the production of IL-2 or IL-3 and were frozen to kill any transferred cells or removed after 48 hours for testing IL-4 production. Separate triplicate wells were incubated for 96 hours for the proliferation assay. The supernatants were kept at […] for several days to kill transferred cells.
Lymph node of spleen cells were plated in a flat bottom 96-well plate (4×10^5/well) in 100 μl medium. Peptide or recombinant protein or control solution (100 μl) is added to each well and the cells allowed to incubate for 1 day at 37° C. On day 2, the cultures were pulsed with [^3H] thymidine (1 μCi per well in 50 μl of medium; 1 Ci=37 GBq) for 4 to 6 hours, and on day 3, the plates were harvested with a 96-well harvester (Tomtec, Orange, Conn.) and counted on a Betaplate scintillation counter (Pharmacia, Upsaala Sweden).
To measure IL-2, supernatants were tested after thawing for the ability to support the growth of an IL-2-dependent line such as CTLL-2 (University of California, Berkeley). […] After a 24 hour incubation, the cells were pulsed with [^3H] thymidine (1 μCi per well in 50 μl of medium; 1 Ci=37 GBq) for 4 to 6 hours and the plates were harvested with a 96-well harvester (Tomtec, Orange, Conn.) and counted on a Betaplate scintillation counter (Pharmacia, Upsaala Sweden).

| Substance | human IgE binding (human IgE) | IgG antibody specific for peptide Y ([1]; 10 days after peptide Y/CFA challenge, sera 1/900) | peptide Y specific IgG2a, IgG3, or IgE ([1]; mouse, in vivo) | peptide Y specific IgG2b ([1]; peptide Y tolerized animals) | peptide Y specific serum IgM titer ([1]; peptide Y tolerized animals) | peptide Y specific IgG1 titer ([1]; peptide Y tolerized animals (two animals / one animal)) | spleen cell IL-2 production (B6CBAF1 mice) | spleen cell proliferation (B6CBAF1 mice) | proliferation of and production of IL-2 by draining and mesenteric lymph node cells (B6CBAF1 mice; challenge 100 μg in CFA) |
| --- | --- | --- | --- | --- | --- | --- | --- | --- | --- |
| TRFP: human T cell reactive feline protein affinity purified from house dust; two covalently linked chains | bind human IgE |  |  |  |  |  |  |  |  |
| peptide Y: amino acid residues 29-55 from chain 1 of TRFP (SEQ. ID. NO: 18) (KALPVVLENARILKNCVDAKMTEEDKE) |  | little antibody specific for peptide Y | No binding above background | no IgG2b binding above background | 1/300 | 1/300 and no binding above background | limited in their ability to produce IL-2 | no effect on spleen cell proliferation | decreased |
